Results: PMC4122817, “Target Engagement Analysis and Link to Pharmacodynamic Endpoint for a Novel Class of CNS-penetrant and Efficacious p38α MAPK Inhibitors” (Journal of Neuroimmune Pharmacology, 2014)

Target: T1, p38α MAPK (Mus musculus, UniProt P47811)
T1 construct: gene Mapk14; endogenous p38α MAPK in the murine microglial BV-2 cell line
Experiment: western blot of phosphorylated substrate MK2 in LPS-stimulated BV2 cells (pMSK1 IC50 […]); in vivo effect lost in p38α T106M knock-in mice
Assay type: cell-based

T1 sequence (P47811 2-360): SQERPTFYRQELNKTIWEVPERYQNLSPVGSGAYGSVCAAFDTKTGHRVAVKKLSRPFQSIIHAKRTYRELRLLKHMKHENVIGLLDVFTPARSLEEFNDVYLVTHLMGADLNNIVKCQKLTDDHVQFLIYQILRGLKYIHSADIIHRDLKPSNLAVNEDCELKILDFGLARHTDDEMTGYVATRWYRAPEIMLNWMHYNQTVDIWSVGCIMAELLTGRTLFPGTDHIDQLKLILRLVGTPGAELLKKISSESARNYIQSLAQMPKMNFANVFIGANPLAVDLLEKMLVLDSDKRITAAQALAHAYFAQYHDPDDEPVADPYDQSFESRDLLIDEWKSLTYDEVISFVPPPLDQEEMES

IC50: 1200 nM
Substance: MW181
